This assay has as its target T1, cIAP1 (Homo sapiens, UniProt Q13490).
T1 construct: induce autoubiquitination and degradation of cIAP1 in MDA-MB-231 breast cancer cells; endogenous in cells; host or cells: MDA-MB-231
The experiment in a line: Western blot analysis of cIAP1 autoubiquitination and proteasomal degradation in MDA-MB-231 cells. The assay is classed as cell-based. To be noted: 10 µM, 15 and 120 min. The method, then: Prior to Western blot sample collection, cells were harvested by trypsinization, counted and seeded on 50 mm Petri dishes. After overnight incubation, the culture medium was replaced with fresh medium containing the tested compounds at the target concentration ranges with 0.1% (v/v) DMSO as a control. Next, the cells were washed with PBS and lysed with ice-cold RIPA buffer containing protease and phosphatase inhibitors (Sigma-Aldrich, Poznań, Poland), and after debris removal (4 °C, 15 min, 16,000 × g), the lysates were used in further experiments.
MDA-MB-231 cell lysates (25 µg of total protein/lane) were resolved by SDS-PAGE (4–12%, Tris-glycine, reducing conditions) and transferred onto a nitrocellulose membrane (0.45 µm pore size; Thermo Scientific, Gdańsk, Poland) using the semi-dry blotting system (Cleaver Scientific, Rugby, UK). The membrane was washed with 10 mM PBS (pH 7.4; 5 min, r.t.) and blocked with 5% skim milk in PBS supplemented with 0.05% Tween-20 (PBST) for 1 h at r.t. Subsequently, the membrane was washed with PBST (3 times for 5 min, r.t.) and incubated with rabbit anti-cIAP1 monoclonal IgG (1:1,000 in 0.5% skim milk in PBST; 4 °C, overnight; Cell Signaling Technology, Warszawa, Poland, Cat# 7065, D5G9). […]
(In general: Immunoblotting shows a protein as a band on a membrane.)

Structures are written as SMILES.

T1 sequence (Q13490 whole entry): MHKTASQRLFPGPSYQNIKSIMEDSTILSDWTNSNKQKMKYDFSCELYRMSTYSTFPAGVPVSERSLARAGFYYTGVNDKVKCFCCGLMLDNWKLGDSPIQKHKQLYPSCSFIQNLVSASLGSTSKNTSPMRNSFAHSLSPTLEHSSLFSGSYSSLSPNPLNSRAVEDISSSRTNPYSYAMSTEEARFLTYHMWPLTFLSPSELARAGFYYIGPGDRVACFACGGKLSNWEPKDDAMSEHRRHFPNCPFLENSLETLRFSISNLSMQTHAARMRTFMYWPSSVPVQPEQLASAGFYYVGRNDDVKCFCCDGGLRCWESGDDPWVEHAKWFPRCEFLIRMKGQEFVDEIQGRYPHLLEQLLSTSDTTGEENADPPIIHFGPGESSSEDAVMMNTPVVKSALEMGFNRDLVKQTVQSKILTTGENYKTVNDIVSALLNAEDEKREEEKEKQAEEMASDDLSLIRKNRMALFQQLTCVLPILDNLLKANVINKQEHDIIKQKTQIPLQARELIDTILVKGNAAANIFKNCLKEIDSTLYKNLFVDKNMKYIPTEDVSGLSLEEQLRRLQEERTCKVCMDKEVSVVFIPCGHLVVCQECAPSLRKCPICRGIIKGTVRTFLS

Take `CN[C@@H](C)C(=O)N[C@H](C(=O)N1CCC[C@H]1C(=O)NC(Cc1ccccc1)P(=O)(Oc1ccccc1)Oc1ccccc1)C1CCCCC1` (stereo partly drawn) [Compound 42, diphenyl (1-((S)-1-((S)-2-cyclohexyl-2-((S)-2-(methylamino)propanamido)acetyl)pyrrolidine-2-carboxamido)-2-phenylethyl)phosphonate]: the “induction of autoubiquitination and degradation of cIAP1” value is given as “greatest ability to induce cIAP1 degradation”. As for `CN[C@@H](C)C(=O)N[C@H](C(=O)N1CCC[C@H]1C(=O)NC(Cc1ccccc1)P(=O)(Oc1ccccc1)Oc1ccccc1)C(C)C` (stereo partly drawn) [Compound 41, diphenyl (1-((S)-1-((S)-3-methyl-2-((S)-2-(methylamino)propanamido)butanoyl)pyrrolidine-2-carboxamido)-2-phenylethyl)phosphonate], the “induction of autoubiquitination and degradation of cIAP1” value was “greatest ability to induce cIAP1 degradation”.

The values are drawn from PMC7497679, “Structure-based design, synthesis, and evaluation of the biological activity of novel phosphoroorganic small molecule IAP antagonists” (Investigational New Drugs, 2020).
